Reference: patent US9303069B2, “Peptides for treating cancer” (University of Mississippi Medical Center, priority 2014, dated 2016)

Assays:
Assay type in all cases: cell-based, human
[1] = tested on: HME and HME/IRIS cells; assay: Survival of HME versus HME/IRIS cells with pathway inhibitors; settings: 10 μM inhibitor, 24 hours
Description: Similar numbers of HME or HME/IRIS were grown in the presence of 10 μM of ERK (PD98059), JNK (SP600125), p38 (SB203580), EGFR (Erlotinib), ErbB2 (CP-724714) or PI3′K/AKT (LY294002) inhibitors for 24 hours. In keeping with published data (Nakuci et al., 2006; Hao and ElShamy, 2007; Chock et al., 2010a), BRCA1-IRIS overexpression promoted cells proliferation (FIG. 73). Thus, data are represented as percentage of treatment compared to no treatment in each cell line separately. […] Thus, as expected, cells overexpressing BRCA1-IRIS exerts some of their functions through EGFR/ErbB2 that feeds into PI3′K/AKT/mTOR and MAPK signaling pathways (FIG. 74).
Cell viability measurement. Cell viability under different experimental conditions was determined using the MTS assay. Briefly, cells (2.5×10^4 cells per well) were seeded in 96-well plates and incubated overnight at 37° C. in 10% humidified CO2 atmosphere. The next day they were incubated with varying concentration of peptide, or inhibitors for 24 hours at 37° C. Cell viability was determined using cell Titer 96® Aqueous (Promega, Madison, Wis., USA) following manufacturer's instructions. Cell viability (%) was expressed as a ratio of treated cells to control cells×100. Growth inhibition was also determined by manually counting cells in five different microscopic fields. Change in cell numbers (fold) was expressed as a ratio of the means of these recording of treated cells compared to control cells×100. Each experiment was done in triplicate, repeated three separate times.

[2] = tested on: HOSE and HOSE/IRIS cells; assay: Survival of HOSE versus HOSE/IRIS cells; settings: 10 μM inhibitor, 24 hours
Description: To test that, HOSE or HOSE/IRIS cells were incubated for 24 hours with 10 μM of ErbB2 (CP-724714), EGFR (Erlotinib), TrkB (K252a), JNK (SP600125), p38 (SB203580), ERK (PD98059) and PI3′K/AKT (LY294002) inhibitors. […] Taken together, BRCA1-IRIS overexpression activates AKT and ERK, thereby inactivating FOXO3a and promoting Cyclin D1, survivin, Bcl-2 and NF-κB expression and suppressing p27 expression (FIG. 15).
HOSE cells overexpressing IRIS show a higher degree of resistance to cisplatin than HOSE cells (compare blue to black line in FIG. 30).
Cell viability measurement. Cell viability under different experimental conditions was determined using the MTS assay […]. Briefly, SKOV3, OVACAR3, HOSE and HOSE/IRIS cells (2.5×10^4 cells per well) were seeded in 96 well plates and incubated overnight at 37° C. in 10% humidified CO2 atmosphere in varying concentrations of IRIS peptide, or inhibitors of ErbB2 (CP-724714), EGFR (Erlotinib), TrkB (K252a), JNK (SP600125), p38 (SB203580), ERK (PD98059) and PI3′K/AKT (LY294002) inhibitors for 24 hours at 37° C. Cell Titer 96® Aqueous (Promega, Madison, Wis., USA) was used to measure viability following manufactures instructions. Cell viability (%) was expressed as a ratio to control cells×100. Growth inhibition was also determined by manually counting cells in five different microscopic fields. Change in cell numbers (fold) was expressed as a ratio to control cells×100. All experiments were done in at least triplicates, three different times. * is p≦0.05, ** is p≦0.001 and *** is p≦0.0001.

[3] = tested on: AKT, p-AKT, p-FOXO and FOXO3a; assay: Signalling proteins in MDA-MB-231 and MDA-MB-468 cells (Western); settings: 5 μM IRIS peptide, 10 μM LY294002 or 10 μM PD98059, 24 hours
Excerpt: This was completely in line with decreased MDM2 and Skp2 (the ubiquitin ligases responsible for p-FOXO degradation) expression in BRCA1-IRIS silenced and BRCA1-IRIS and AKT inactivated cells (FIG. 87).

[4] = tested on: BRCA1-IRIS; assay: BRCA1-IRIS expression in breast cells (Western); settings: MDA-MB-231 and MDA-MB-468; 5 μM IRIS peptide, 10 μM LY294002 or 10 μM PD98059 24 hours; siRNA 72 hours
Description: HME and HME/IRIS cells were treated with 10, 20 and 50 μM of paclitaxel for 24 hours. Compared to HME/IRIS cells, untreated HME cells express very low level of BRCA1-IRIS (FIG. 68, left). […] Both EGF and NRG1, which were secreted at higher levels from untreated HME/IRIS cells, remained high after paclitaxel (until ˜50 μM, FIG. 68, left), whereas in HME cells, both were induced by low paclitaxel treatment (FIG. 68, left). Consistently, in HME/IRIS cells EGFR was phosphorylated on Y1173 (activated by EGF when EGFR is in complex with ErbB2) and ErbB2 on Y1248 (activated by NRG1 when ErbB2 is in complex with ErbB3) remained the same after paclitaxel treatment (until ˜50 μM, FIG. 68, left). Phosphorylated EGFR-Y1173 and ErbB2-Y1248 was only observed in paclitaxel treated HME cells, especially at low concentration (FIG. 68, left).
Survived/paclitaxel-resistant cells were then propagated in the absence of paclitaxel and analyzed. Again, the intrinsically high level of BRCA1-IRIS was not affected by paclitaxel in HME/IRIS cells (FIG. 69, left). […] The expressions of EGFR, ErbB2 and ErbB3 were high in HME/IRIS and HME cells (FIG. 69, left). Despite an intrinsic increase in HME/IRIS and paclitaxel-acquired increase in HME cells in AKT activation, FOXO inactivation/degradation and thus activation increase in CyclinD1, survivin, Bcl-2, Bcl-xL and NF-κB was observed (FIG. 69, right).
To test that hypothesis, an intron 11 peptide (right in FIG. 26) fused to a cell/nucleus penetrating signal at its N-terminus (left in FIG. 26) was synthesized (hereafter IRIS peptide). First, to assess the effect of this IRIS peptide, equal numbers of HME, HME/IRIS, MDA-MB-231, MDA-MB-468 and BT549 cells were exposed to increasing concentrations of scrambled or IRIS peptide for 48 hours. […] It is possible that preventing BRCA1-IRIS-X complex formation destabilizes BRCA1-IRIS and perhaps leads to its degradation.
To investigate whether inactivating BRCA1-IRIS could sensitize TNBC to paclitaxel-induced cell death, HME cells were exposed to 0.5 μM, while HME/IRIS, MDA-MB-231, MDA-MB-468 and BT549 cells were exposed to 5 μM of IRIS peptide alone or with 5, 10 or 20 μM of paclitaxel for 24 hours. […] Again, IRIS peptide alone at these concentrations led to 50% reduction in survival of all cell lines. […] Indeed, in the presence of IRIS peptide >60%, >70% and >90% reduction in the survival of all cell lines in the presence of 5, 10 and 20 μM of paclitaxel, respectively (FIG. 84).
To relate the effect of IRIS peptide on cell survival to the effect of BRCA1-IRIS on AKT and ERK survival pathways, MDA-MB-231 and MDA-MB-468 were treated with vehicle, 5 μM of IRIS peptide, 10 μM LY294002, 10 μM PD98059 for 24 hours or were transfected with BRCA1-IRIS siRNA for 72 hours.

[5] = tested on: AKT, ERK, MDM2 and Skp2; assay: Signalling proteins in SKOV3 and OVCAR3 cells (Western)
Excerpt: Finally, to further dissect the IRIS-induced cisplatin resistance pathway, PI3′K/AKT (using […]) and ERK (using PD98059) were inactivated and compared to IRIS peptide in two aggressive ovarian cancer cell lines. […] Phosphorylation of cytoplasmic or nuclear FOXO3a by p-AKT and/or p-ERK promotes MDM2 binding and priming ubiquitylation, which is then followed by Skp2 branching ubiquitylation and FOXO3a degradation (Huang and Tindall, 2011). FOXO was less phosphorylated in LY, PD as well as IRIS-silenced/inactivated SKOV3 or OVCAR3 cells (FIG. 34). […] Consistently, in BRCA1-IRIS silenced/inactivated cells accumulation of unphosphorylated/stabilized FOXO3a was detected. In contrast, FOXO3a was still decreased to different degrees in LY or PD treated cells (FIG. 34).

SMILES	effect on survival of HME versus HME/IRIS cells [1]	effect on survival of HOSE versus HOSE/IRIS cells [2]	p-FOXO and FOXO3a levels [3]	BRCA1-IRIS expression [4]	AKT and ERK expression and activation [5]	MDM2 and Skp2 expression [5]
COCC(=O)NC/C=C/c1ccc2ncnc(Nc3ccc(Oc4ccc(C)nc4)c(C)c3)c2c1 [CP-724714]	specifically reduced survival in HME/IRIS and not HME cells	significantly decreased survival of HOSE/IRIS cells only				
C#Cc1cccc(Nc2ncnc3cc(OCCOC)c(OCCOC)cc23)c1 [Erlotinib]	reduced survival of both cell lines	equally decreased survival of HOSE and HOSE/IRIS cells				
COC(=O)[C@@]1(O)C[C@H]2O[C@]1(C)n1c3ccccc3c3c4c(c5c6ccccc6n2c5c31)C(=O)NC4 [K252a]		significantly decreased survival of HOSE/IRIS cells only				
COc1cccc(-c2cc(=O)c3ccccc3o2)c1N [PD98059]	specifically reduced survival in HME/IRIS and not HME cells	significantly decreased survival of HOSE/IRIS cells only	no effect	significantly reduced BRCA1-IRIS expression in MDA-MB-231 and to a lesser degree in MDA-MB-468	significantly inactivated their cognate protein	reduced Skp2 and not MDM2 expression
C[S+]([O-])c1ccc(-c2nc(-c3ccncc3)c(-c3ccc(F)cc3)[nH]2)cc1 (stereo not shown) [SB203580]	no effect on either cell line	equally decreased survival of HOSE and HOSE/IRIS cells				
